Assay: xn = mol fraction of the nth substance listed
Conditions: Gas, Vibrating wire viscometry, x1 = 0.949

C [methane] + CCC
Conditions	viscosity [mPa·s]
199.92 K, 10367 kPa	0.03814
200.6 K, 13841 kPa	0.04236
202.32 K, 17279 kPa	0.04452
203.24 K, 24182 kPa	0.05008
203.36 K, 20735 kPa	0.04739
203.36 K, 27628 kPa	0.05294
203.43 K, 25922 kPa	0.0511
204.19 K, 31114 kPa	0.05549
255.51 K, 24135 kPa	0.03085
255.57 K, 31095 kPa	0.03577
255.59 K, 25902 kPa	0.03221
255.59 K, 27592 kPa	0.03348
255.62 K, 20701 kPa	0.02791
311.08 K, 25869 kPa	0.02348
311.11 K, 31037 kPa	0.0265
311.12 K, 20946 kPa	0.02061
311.13 K, 24419 kPa	0.02279
311.13 K, 27584 kPa	0.02453
366.88 K, 24192 kPa	0.01997
366.89 K, 25926 kPa	0.02064
366.89 K, 27645 kPa	0.02138
366.89 K, 31144 kPa	0.0226
423.62 K, 24191 kPa	0.01944
423.63 K, 25937 kPa	0.01988
423.63 K, 27640 kPa	0.02032
423.63 K, 31097 kPa	0.02136

— the NIST ThermoML archive (doi:10.1021/je500857w)
